Test results taken from ChEMBL document CHEMBL4680110 (2018).
Calls of active or inactive are those of the source. Peptide text beside a SMILES is read from it. * marks the point of attachment. Bz = O=C(c1ccccc1)*

How the values were obtained:
[1] = biological target: Nicotinic acetylcholine receptor alpha9/alpha10 (Rattus norvegicus, UniProt P43144+Q9JLB5); assay: Inhibition of rat alpha9alpha10 nAChR expressed in Xenopus laevis oocytes assessed as inhibition of Ach-induced response at -80 mV holding potential preincubated for 5 mins followed by Ach stimulation by two electrode voltage-clamp assay; assay type: cell-based, Oocyte
Sequence of Nicotinic acetylcholine receptor alpha9/alpha10 (P43144 whole entry): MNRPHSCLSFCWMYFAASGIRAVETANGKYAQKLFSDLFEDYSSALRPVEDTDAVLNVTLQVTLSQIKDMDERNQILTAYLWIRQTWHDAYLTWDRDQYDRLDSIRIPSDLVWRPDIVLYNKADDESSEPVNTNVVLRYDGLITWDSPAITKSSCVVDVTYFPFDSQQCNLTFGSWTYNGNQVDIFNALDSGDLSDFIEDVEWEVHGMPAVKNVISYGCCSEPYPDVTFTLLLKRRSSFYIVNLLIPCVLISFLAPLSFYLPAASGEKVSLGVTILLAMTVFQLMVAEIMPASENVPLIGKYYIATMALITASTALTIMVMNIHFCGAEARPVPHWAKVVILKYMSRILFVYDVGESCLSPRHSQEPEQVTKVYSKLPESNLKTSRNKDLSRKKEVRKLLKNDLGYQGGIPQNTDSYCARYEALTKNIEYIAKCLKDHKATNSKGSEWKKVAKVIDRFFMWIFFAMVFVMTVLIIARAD
Sequence of Nicotinic acetylcholine receptor alpha9/alpha10 (Q9JLB5 whole entry): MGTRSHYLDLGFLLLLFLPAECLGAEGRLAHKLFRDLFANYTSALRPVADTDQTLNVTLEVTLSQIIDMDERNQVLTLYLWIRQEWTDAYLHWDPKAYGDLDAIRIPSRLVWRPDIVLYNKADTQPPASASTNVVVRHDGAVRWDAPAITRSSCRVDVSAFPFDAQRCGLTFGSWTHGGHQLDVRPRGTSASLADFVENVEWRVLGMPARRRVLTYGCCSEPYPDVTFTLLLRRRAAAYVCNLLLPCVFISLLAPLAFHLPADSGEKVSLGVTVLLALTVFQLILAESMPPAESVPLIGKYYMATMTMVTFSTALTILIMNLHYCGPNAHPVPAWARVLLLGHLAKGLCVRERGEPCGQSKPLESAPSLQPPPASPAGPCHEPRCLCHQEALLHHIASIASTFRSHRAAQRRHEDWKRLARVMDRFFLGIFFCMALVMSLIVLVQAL

[2] = species on record: Rattus norvegicus; assay: Inhibition of TTX-resistant sodium channel in Sprague-Dawley rat DRG neuron at 10 uM at 10 mV holding potential by whole cell patch clamp technique
[3] = test system: Neuron; assay: Inhibition of TTX-sensitive sodium channel in Sprague-Dawley rat DRG neuron at 10 uM at -10 mV holding potential by whole cell patch clamp technique; assay type: tissue-based
[4] = biological target: GABA-B receptor (Homo sapiens, UniProt O75899+Q9UBS5); assay: Activation of human GABAB1/GABAB2 expressed in HEK293 cells co-transfected with rat CaV2.2 channel assessed as reduction in CaV2.2-mediated peak-current amplitude in response to the depolarizing pulse by whole cell patch clamp assay; assay type: cell-based, HEK293T
Sequence of GABA-B receptor (Q9UBS5 whole entry): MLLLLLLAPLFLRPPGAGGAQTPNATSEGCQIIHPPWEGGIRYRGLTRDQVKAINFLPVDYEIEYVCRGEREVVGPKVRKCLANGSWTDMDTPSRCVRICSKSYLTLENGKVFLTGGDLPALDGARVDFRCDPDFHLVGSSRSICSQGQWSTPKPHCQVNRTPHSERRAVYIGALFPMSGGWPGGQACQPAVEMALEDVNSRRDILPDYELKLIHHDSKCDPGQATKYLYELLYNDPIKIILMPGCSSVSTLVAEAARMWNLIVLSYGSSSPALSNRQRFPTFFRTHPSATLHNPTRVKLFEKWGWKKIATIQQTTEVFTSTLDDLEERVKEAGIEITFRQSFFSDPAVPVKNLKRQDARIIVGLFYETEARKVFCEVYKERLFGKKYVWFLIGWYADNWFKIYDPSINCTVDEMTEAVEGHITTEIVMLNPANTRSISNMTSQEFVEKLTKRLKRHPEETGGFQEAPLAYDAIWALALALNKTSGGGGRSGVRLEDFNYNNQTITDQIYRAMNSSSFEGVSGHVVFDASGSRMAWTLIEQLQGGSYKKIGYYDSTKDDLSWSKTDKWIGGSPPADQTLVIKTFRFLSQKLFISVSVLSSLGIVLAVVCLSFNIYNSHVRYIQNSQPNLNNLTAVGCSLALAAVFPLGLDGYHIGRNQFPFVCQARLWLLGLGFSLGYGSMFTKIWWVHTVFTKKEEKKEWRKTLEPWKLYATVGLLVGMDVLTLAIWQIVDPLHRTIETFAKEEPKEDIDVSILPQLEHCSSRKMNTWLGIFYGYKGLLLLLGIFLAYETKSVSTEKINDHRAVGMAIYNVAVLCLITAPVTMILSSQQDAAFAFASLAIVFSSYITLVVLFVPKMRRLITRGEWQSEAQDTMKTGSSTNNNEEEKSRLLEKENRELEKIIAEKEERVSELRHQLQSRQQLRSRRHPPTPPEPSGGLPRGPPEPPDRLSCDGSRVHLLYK
Sequence of GABA-B receptor (O75899 whole entry): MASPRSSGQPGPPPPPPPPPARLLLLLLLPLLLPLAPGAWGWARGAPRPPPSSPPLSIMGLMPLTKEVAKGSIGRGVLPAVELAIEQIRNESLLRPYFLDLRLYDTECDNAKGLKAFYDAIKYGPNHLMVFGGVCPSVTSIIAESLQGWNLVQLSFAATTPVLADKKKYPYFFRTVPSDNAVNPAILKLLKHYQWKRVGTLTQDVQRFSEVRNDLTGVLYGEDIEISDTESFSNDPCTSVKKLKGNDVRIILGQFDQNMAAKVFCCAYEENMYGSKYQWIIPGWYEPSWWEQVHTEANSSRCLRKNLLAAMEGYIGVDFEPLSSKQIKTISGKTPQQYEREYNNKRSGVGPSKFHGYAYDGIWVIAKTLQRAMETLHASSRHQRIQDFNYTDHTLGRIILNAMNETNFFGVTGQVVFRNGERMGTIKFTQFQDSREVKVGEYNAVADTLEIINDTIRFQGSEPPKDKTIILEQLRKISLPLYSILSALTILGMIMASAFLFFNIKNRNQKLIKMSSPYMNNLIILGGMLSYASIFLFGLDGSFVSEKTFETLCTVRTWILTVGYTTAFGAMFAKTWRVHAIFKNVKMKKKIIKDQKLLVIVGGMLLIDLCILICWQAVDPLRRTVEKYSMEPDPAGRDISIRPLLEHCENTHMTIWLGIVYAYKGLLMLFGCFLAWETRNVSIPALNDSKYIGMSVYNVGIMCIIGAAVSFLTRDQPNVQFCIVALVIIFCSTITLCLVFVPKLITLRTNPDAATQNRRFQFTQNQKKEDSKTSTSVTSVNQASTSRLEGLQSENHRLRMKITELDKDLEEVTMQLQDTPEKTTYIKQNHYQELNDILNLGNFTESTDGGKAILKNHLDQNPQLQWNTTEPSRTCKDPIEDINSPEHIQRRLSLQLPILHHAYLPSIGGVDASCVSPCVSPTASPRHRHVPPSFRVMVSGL

[5] = biological target: T1, GABA-B receptor (Homo sapiens) (UniProt Q9UBS5+O75899); assay: Activation of human GABAB1/GABAB2 expressed in HEK293 cells co-transfected with rat CaV2.2 channel assessed as reduction in CaV2.2-mediated peak-current amplitude in response to depolarizing pulse at 1 nM by whole cell patch clamp assay relative to control; assay type: cell-based; conditions: HEK293T
[6] = biological target: Neuronal acetylcholine receptor; alpha9/alpha10 (Homo sapiens, UniProt Q9GZZ6+Q9UGM1); assay: Inhibition of human alpha9alpha10 nAChR expressed in Xenopus laevis oocytes assessed as inhibition of Ach-induced response at -80 mV holding potential preincubated for 5 mins followed by Ach stimulation by two electrode voltage-clamp assay; assay type: cell-based, Oocyte
Sequence of Neuronal acetylcholine receptor; alpha9/alpha10 (Q9UGM1 whole entry): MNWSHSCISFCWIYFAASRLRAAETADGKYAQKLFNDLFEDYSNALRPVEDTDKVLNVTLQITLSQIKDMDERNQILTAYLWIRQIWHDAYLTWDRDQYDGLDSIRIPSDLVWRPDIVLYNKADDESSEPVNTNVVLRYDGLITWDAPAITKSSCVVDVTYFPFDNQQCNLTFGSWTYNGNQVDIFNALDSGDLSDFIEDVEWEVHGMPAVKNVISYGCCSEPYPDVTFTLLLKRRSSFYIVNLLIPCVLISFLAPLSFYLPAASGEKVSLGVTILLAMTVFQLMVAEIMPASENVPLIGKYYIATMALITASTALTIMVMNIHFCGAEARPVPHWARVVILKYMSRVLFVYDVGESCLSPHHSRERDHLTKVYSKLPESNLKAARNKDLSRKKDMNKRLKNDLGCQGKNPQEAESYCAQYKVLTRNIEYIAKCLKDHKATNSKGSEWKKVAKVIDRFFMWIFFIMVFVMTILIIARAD
Sequence of Neuronal acetylcholine receptor; alpha9/alpha10 (Q9GZZ6 whole entry): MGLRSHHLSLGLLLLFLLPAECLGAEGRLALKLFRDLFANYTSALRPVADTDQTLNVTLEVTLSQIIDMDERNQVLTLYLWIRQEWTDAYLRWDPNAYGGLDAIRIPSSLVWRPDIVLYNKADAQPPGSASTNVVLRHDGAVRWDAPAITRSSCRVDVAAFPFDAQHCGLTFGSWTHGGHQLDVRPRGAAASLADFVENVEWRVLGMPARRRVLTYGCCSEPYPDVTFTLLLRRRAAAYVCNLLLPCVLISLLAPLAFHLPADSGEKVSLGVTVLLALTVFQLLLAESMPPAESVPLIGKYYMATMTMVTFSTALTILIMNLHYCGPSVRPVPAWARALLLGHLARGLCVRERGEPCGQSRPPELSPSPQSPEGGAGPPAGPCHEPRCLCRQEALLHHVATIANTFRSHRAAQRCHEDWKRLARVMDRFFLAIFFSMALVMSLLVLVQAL

[7] = test system: Rattus norvegicus; assay: Analgesic activity in Sprague-Dawley rat model of PNL injury-induced neuropathic pain assessed as pain threshold elevation percentage at 15 nmol/kg, IM administered as single dose measured after 2 to 2.5 hrs post dose; assay type: functional; conditions: time 2-2.5 hrs
[8] = test system: Rattus norvegicus; assay: Analgesic activity in Sprague-Dawley rat model of PNL injury-induced neuropathic pain assessed as pain threshold elevation percentage at 0.3 nmol/kg, IM administered as single dose measured after 2 to 2.5 hrs post dose; assay type: functional; conditions: time 2-2.5 hrs
[9] = Selectivity index, ratio of IC50 for inhibition of human alpha9alpha10 nAChR expressed in Xenopus laevis oocytes to IC50 for activation of human GABAB1/GABAB2 expressed in HEK293 cells co-transfected with rat CaV2.2 channel assessed as reduction in CaV2.2-mediated peak-current amplitude; assay type: cell-based
[10] = biological target: T1, GABA-B receptor (Homo sapiens); assay: Activation of human GABAB1/GABAB2 expressed in HEK293 cells co-transfected with rat CaV2.2 channel assessed as reduction in CaV2.2-mediated Ba2+ peak-current amplitude in response to depolarizing pulse in presence of 1 uM GABAB receptor antagonist CGP55845 by whole cell patch clamp assay; assay type: cell-based; conditions: HEK293T, time 6.0 hrs
[11] = test system: Rattus norvegicus; assay: Analgesic activity in Sprague-Dawley rat model of PNL injury-induced neuropathic pain assessed as pain threshold elevation percentage at 1.5 nmol/kg, IM administered as single dose measured after 2 to 2.5 hrs post dose; assay type: functional; conditions: time 2-2.5 hrs
[12] = Selectivity index, ratio of IC50 for inhibition of rat alpha9alpha10 nAChR expressed in Xenopus laevis oocytes to IC50 for activation of human GABAB1/GABAB2 expressed in HEK293 cells co-transfected with rat CaV2.2 channel assessed as reduction in CaV2.2-mediated peak Ba2+ current amplitude; assay type: cell-based
[13] = test system: Rattus norvegicus; assay: Analgesic activity in Sprague-Dawley rat model of chronic constriction injury-induced neuropathic pain assessed as increase in pain threshold elevation percentage at 0.3 to 15 nmol/kg, IM administered as single dose measured after 2 to 2.5 hrs post dose; assay type: functional, organism-based; conditions: dose 0.3-15 nmol/kg, time 2-2.5 hrs
[14] = biological target: Voltage-dependent N-type calcium channel subunit alpha-1B (Rattus norvegicus) (UniProt Q02294); assay: Inhibition of rat CaV2.2 channel expressed in HEK293T cells assessed as reduction in CaV2.2-mediated peak-current amplitude in response to depolarizing pulse at 10 uM by whole cell patch clamp assay relative to control; assay type: cell-based
[15] = biological target: Neuronal acetylcholine receptor; alpha2/beta2 (Rattus norvegicus) (UniProt P12389+P12390); assay: Inhibition of rat alpha2beta2 nAChR expressed in Xenopus laevis oocytes assessed as inhibition of Ach-induced response at 10 uM at -80 mV holding potential preincubated for 5 mins followed by Ach stimulation by two electrode voltage-clamp assay relative to control; assay type: cell-based; conditions: Oocyte
[16] = biological target: Neuronal acetylcholine receptor; alpha3/beta4 (Rattus norvegicus) (UniProt P04757+P12392); assay: Inhibition of rat alpha3beta4 nAChR expressed in Xenopus laevis oocytes assessed as inhibition of Ach-induced response at 10 uM at -80 mV holding potential preincubated for 5 mins followed by Ach stimulation by two electrode voltage-clamp assay relative to control; assay type: cell-based; conditions: Oocyte
[17] = biological target: T1, GABA-B receptor (Homo sapiens); assay: Activation of human GABAB1/GABAB2 expressed in HEK293 cells co-transfected with rat CaV2.2 channel assessed as reduction in CaV2.2-mediated peak-current amplitude in response to depolarizing pulse at 1 nM in presence of with 10 uM baclofen by whole cell patch clamp assay relative to control; assay type: cell-based; conditions: HEK293T, filed as activator
[18] = biological target: Neuronal acetylcholine receptor; alpha2/beta4 (Rattus norvegicus) (UniProt P12389+P12392); assay: Inhibition of rat alpha2beta4 nAChR expressed in Xenopus laevis oocytes assessed as inhibition of Ach-induced response at 10 uM at -80 mV holding potential preincubated for 5 mins followed by Ach stimulation by two electrode voltage-clamp assay relative to control; assay type: cell-based; conditions: Oocyte
[19] = biological target: Neuronal acetylcholine receptor subunit alpha-7 (Rattus norvegicus) (UniProt Q05941); assay: Inhibition of rat alpha7 nAChR expressed in Xenopus laevis oocytes assessed as inhibition of Ach-induced response at 10 uM at -80 mV holding potential preincubated for 5 mins followed by Ach stimulation by two electrode voltage-clamp assay relative to control; assay type: cell-based; conditions: Oocyte
Sequence of Neuronal acetylcholine receptor subunit alpha-7 (Rattus norvegicus) (Q05941 whole entry): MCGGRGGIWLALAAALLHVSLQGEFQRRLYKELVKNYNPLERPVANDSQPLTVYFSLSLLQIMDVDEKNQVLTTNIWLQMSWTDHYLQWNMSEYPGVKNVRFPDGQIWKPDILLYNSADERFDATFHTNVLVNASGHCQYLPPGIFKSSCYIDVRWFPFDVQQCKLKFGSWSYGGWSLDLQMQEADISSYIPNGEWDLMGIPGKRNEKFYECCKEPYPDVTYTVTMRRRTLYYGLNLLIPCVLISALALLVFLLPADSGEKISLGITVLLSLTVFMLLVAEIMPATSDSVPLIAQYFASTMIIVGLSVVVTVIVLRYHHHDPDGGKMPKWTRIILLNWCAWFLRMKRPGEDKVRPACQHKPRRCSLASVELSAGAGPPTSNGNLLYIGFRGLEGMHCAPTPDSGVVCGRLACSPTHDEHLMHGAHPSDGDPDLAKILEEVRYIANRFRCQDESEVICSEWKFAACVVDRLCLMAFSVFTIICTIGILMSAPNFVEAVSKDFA

[20] = biological target: Neuronal acetylcholine receptor; alpha4/beta2 (Rattus norvegicus) (UniProt P09483+P12390); assay: Inhibition of rat alpha4beta2 nAChR expressed in Xenopus laevis oocytes assessed as inhibition of Ach-induced response at 10 uM at -80 mV holding potential preincubated for 5 mins followed by Ach stimulation by two electrode voltage-clamp assay relative to control; assay type: cell-based; conditions: Oocyte
[21] = biological target: Neuronal acetylcholine receptor; alpha3/beta2 (Rattus norvegicus) (UniProt P04757+P12390); assay: Inhibition of rat alpha3beta2 nAChR expressed in Xenopus laevis oocytes assessed as inhibition of Ach-induced response at 10 uM at -80 mV holding potential preincubated for 5 mins followed by Ach stimulation by two electrode voltage-clamp assay relative to control; assay type: cell-based; conditions: Oocyte
[22] = test system: Rattus norvegicus; assay: Analgesic activity in Sprague-Dawley rat model of PNL injury-induced neuropathic pain assessed as pain threshold elevation percentage at 0.3 to 15 nmol/kg, IM administered as single dose measured after 2 to 2.5 hrs post dose; assay type: functional, organism-based; conditions: dose 0.3-15 nmol/kg, time 2-2.5 hrs

Compound	IC50 [1]	inhibition [2]	inhibition [3]	IC50 [4]	inhibition [5]	IC50 [6]	Activity [7]	Ratio IC50 [9]	Activity [10]	Ratio IC50 [12]	other results
CC[C@H](C)[C@H](NC(=O)[C@H](CCC(=O)O)NC(=O)[C@@H]1CCCN1C(=O)[C@H](Cc1cnc[nH]1)NC(=O)[C@H](CC(=O)O)NC(=O)[C@H](Cc1ccc(O)cc1)NC(=O)[C@H](CC(N)=O)NC(=O)[C@H](CS)NC(=O)[C@H](CCCNC(=N)N)NC(=O)[C@@H]1CCCN1C(=O)[C@H](CC(=O)O)NC(=O)[C@H](CO)NC(=O)[C@H](CS)NC(=O)[C@H](CS)NC(=O)CN)C(=O)N[C@@H](CS)C(N)=O	28.3 nM	inactive	inactive	2.4 nM	18.8%	1000 nM	51.1%	417	inactive	11.8	Activity [8]: 12.2%; Activity [11]: 25.6%; Activity [13]: Active
CC[C@H](C)[C@H](NC(=O)[C@H](CCC(=O)O)NC(=O)[C@@H]1CCCN1C(=O)[C@H](Cc1cnc[nH]1)NC(=O)[C@H](CC(=O)O)NC(=O)[C@H](Cc1ccc(O)cc1)NC(=O)[C@H](CC(N)=O)NC(=O)[C@H](CS)NC(=O)[C@H](CCCNC(=N)N)NC(=O)[C@@H]1CCCN1C(=O)[C@H](CC(=O)O)NC(=O)[C@H](CO)NC(=O)[C@H](CS)NC(=O)[C@H](CS)NC(=O)CNC(=O)c1ccccc1)C(=O)N[C@@H](CS)C(N)=O				1.2 nM		12500 nM		> 10000			
CC[C@H](C)[C@H](NC(=O)[C@H](CCC(=O)O)NC(=O)[C@@H]1CCCN1C(=O)[C@H](Cc1cnc[nH]1)NC(=O)[C@H](CC(=O)O)NC(=O)[C@H](Cc1ccc(O)cc1)NC(=O)[C@H](CCCNC(=N)N)NC(=O)[C@H](CS)NC(=O)[C@H](CCCNC(=N)N)NC(=O)[C@@H]1CCCN1C(=O)[C@H](CC(=O)O)NC(=O)[C@H](CO)NC(=O)[C@H](CS)NC(=O)[C@H](CS)NC(=O)CNC(C)=O)C(=O)N[C@@H](CS)C(N)=O (Ac-GCCSDPRCRYDHPEIC-NH2)	2420 nM			18.9 nM			24.8%			128	
CC[C@H](C)[C@H](NC(=O)[C@H](CCC(=O)O)NC(=O)[C@@H]1CCCN1C(=O)[C@H](Cc1cnc[nH]1)NC(=O)[C@H](CC(=O)O)NC(=O)[C@H](Cc1ccc(O)cc1)NC(=O)[C@H](CCCNC(=N)N)NC(=O)[C@H](CS)NC(=O)[C@H](CCCNC(=N)N)NC(=O)[C@@H]1CCCN1C(=O)[C@H](CC(=O)O)NC(=O)[C@H](CO)NC(=O)[C@H](CS)NC(=O)[C@H](CS)NC(=O)CNC(=O)c1ccccc1)C(=O)N[C@@H](CS)C(N)=O (Bz-GCCSDPRCRYDHPEIC-NH2)	875 nM	inactive	inactive	0.2 nM	39.7%	5930 nM	80%	> 25000	inactive	4380	inhibition [14]: 2.2%; inhibition [15]: > 50%; inhibition [16]: > 50%; inhibition [17]: 67.4%; inhibition [18]: > 50%; inhibition [19]: > 50%; inhibition [20]: > 50%; inhibition [21]: > 50%
CC[C@H](C)[C@H](NC(=O)[C@H](CCC(=O)O)NC(=O)[C@@H]1CCCN1C(=O)[C@H](Cc1cnc[nH]1)NC(=O)[C@H](CC(=O)O)NC(=O)[C@H](Cc1ccc(O)cc1)NC(=O)[C@H](CCCNC(=N)N)NC(=O)[C@H](CS)NC(=O)[C@H](CCCNC(=N)N)NC(=O)[C@@H]1CCCN1C(=O)[C@H](CC(=O)O)NC(=O)[C@H](CO)NC(=O)[C@H](CS)NC(=O)[C@@H](N)CS)C(=O)N[C@@H](CS)C(N)=O (H-CCSDPRCRYDHPEIC-NH2)				23.2 nM			32.5%				
CC[C@H](C)[C@H](NC(=O)[C@H](CCC(=O)O)NC(=O)[C@@H]1CCCN1C(=O)[C@H](Cc1cnc[nH]1)NC(=O)[C@H](CC(=O)O)NC(=O)[C@H](Cc1ccc(O)cc1)NC(=O)[C@H](CCCNC(=N)N)NC(=O)[C@H](CS)NC(=O)[C@H](CCCNC(=N)N)NC(=O)[C@@H]1CCCN1C(=O)[C@H](CC(=O)O)NC(=O)[C@H](CO)NC(=O)[C@H](CS)NC(=O)[C@H](CS)NC(=O)CN)C(=O)N[C@@H](CS)C(N)=O (H-GCCSDPRCRYDHPEIC-NH2)	4900 nM	inactive	inactive	4.9 nM	19.6%	363 nM	85%	74.1	inactive	1000	inhibition [15]: > 50%; Activity [22]: Dose-dependent effect; inhibition [16]: > 50%; inhibition [18]: > 50%; inhibition [19]: > 50%; Activity [8]: 16.7%; inhibition [20]: > 50%; Activity [11]: 47.2%; inhibition [21]: > 50%; Activity [13]: Active
CC[C@H](C)[C@H](NC(=O)[C@H](CCC(=O)O)NC(=O)[C@@H]1CCCN1C(=O)[C@H](Cc1cnc[nH]1)NC(=O)[C@H](CC(N)=O)NC(=O)[C@H](Cc1ccc(O)cc1)NC(=O)[C@H](CCCNC(=N)N)NC(=O)[C@H](CS)NC(=O)[C@H](CCCNC(=N)N)NC(=O)[C@@H]1CCCN1C(=O)[C@H](CC(=O)O)NC(=O)[C@H](CO)NC(=O)[C@H](CS)NC(=O)[C@H](CS)NC(=O)CN)C(=O)N[C@@H](CS)C(N)=O (H-GCCSDPRCRYNHPEIC-NH2)	13900 nM			> 1000 nM			40.8%			< 13.9	
CC[C@H](C)[C@H](NC(=O)[C@H](CCC(=O)O)NC(=O)[C@@H]1CCCN1C(=O)[C@H](Cc1cnc[nH]1)NC(=O)[C@H](CCCNC(=N)N)NC(=O)[C@H](Cc1ccc(O)cc1)NC(=O)[C@H](CCCNC(=N)N)NC(=O)[C@H](CS)NC(=O)[C@H](CCCNC(=N)N)NC(=O)[C@@H]1CCCN1C(=O)[C@H](CC(=O)O)NC(=O)[C@H](CO)NC(=O)[C@H](CS)NC(=O)[C@H](CS)NC(=O)CN)C(=O)N[C@@H](CS)C(N)=O (H-GCCSDPRCRYRHPEIC-NH2)				> 1000 nM			35.3%				
CC[C@H](C)[C@H](NC(=O)[C@H](CCC(=O)O)NC(=O)[C@@H]1CCCN1C(=O)[C@H](Cc1cnc[nH]1)NC(=O)[C@H](CO)NC(=O)[C@H](Cc1ccc(O)cc1)NC(=O)[C@H](CCCNC(=N)N)NC(=O)[C@H](CS)NC(=O)[C@H](CCCNC(=N)N)NC(=O)[C@@H]1CCCN1C(=O)[C@H](CC(=O)O)NC(=O)[C@H](CO)NC(=O)[C@H](CS)NC(=O)[C@H](CS)NC(=O)CN)C(=O)N[C@@H](CS)C(N)=O (H-GCCSDPRCRYSHPEIC-NH2)				18.6 nM			9%				
